Source: ChEMBL document CHEMBL3886921, “Substituted pyrazoles as N-type calcium channel blockers” (2016)

Target: Voltage-gated calcium channel
Assay: Functional Drug Screening System (FDSS): Calcium mobilization responses to KCl depolarization were evaluated by measuring the intensity of calcium-mediated fluorescent signal in the presence of BD Calcium Assay Dye (BD Biosciences, Franklin Lakes, N.J., U.S.A.), utilizing a Functional Drug Screening System (FDSS) by Hamamatsu Corporation (Bridgewater, N.J. U.S.A.).Twenty-four hr prior to assay, cells were seeded in clear-base poly-D-lysine-coated 384-well plates (BD Biosciences) at a density of 5,000 cells per well in culture medium and grown overnight in 5% CO2 at 37° C. On the day of assay, growth media were removed, and cells were loaded with BD calcium assay dye (BD Biosciences) for 35 min at 37° C. under 5% CO2 and then for 25 min at room temp. Utilizing the FDSS, cells were exposed to representative compounds of Formula (I) at varying concentrations, and intracellular calcium was measured for 5 min prior to the addition of 50 mM KCl for an additional 3 min of measurement.
Assay type: cell-based

COc1ccccc1-n1nc(OC2CC(C)(C)C(=O)C(C)(C)C2)cc1-c1ccc(Cl)cc1
IC50: 9.7 nM
